Patent publication US20260199309A1, “COMPOUNDS FOR THE TREATMENT OF CENTRA NERVOUS SYSTEM DISORDERS” (Autifony Therapeutics Limited, priority 2022, published 2026)

Assays:
[1] = In vitro metabolic stability (CLint), rat; assay type: in vitro ADME; settings: intrinsic clearance, incubation 0-30 minutes at 37° C. with NADPH regenerating system
Method: The objective of this study was to determine metabolic stability of test items in preclinical species and human liver microsomes. Verapamil and dextromethorphan were used as positive controls for microsomal incubation.
Incubation medium was prepared by combining 11.2 mL of potassium phosphate monobasic and 38.8 mL of potassium phosphate dibasic, diluted to 1 L with water. Cryopreserved microsomes were thawed and kept on ice until use. Microsomes were then diluted in incubation to a protein concentration of 0.56 mg/mL. Cells were centrifuged, re-suspended in medium and counted by means of a haemocytometer. Cell viability was measured using the Trypan Blue exclusion test.
NADPH regenerating system solution was prepared by dissolving 1.7 mg of NADP, 7.8 mg of G6P and 6 units of G6P-Dehydrogenase in 1 mL of 2% sodium bicarbonate solution (prepared by dissolving 20 g of NaHCO3 in 1 L of water).
Test compounds were separately dissolved in DMF to obtain 10 mM stock solutions that were further diluted in water/acetonitrile 50/50 (v/v) to obtain the corresponding 50 uM working solutions. Verapamil and dextromethorphan were dissolved in DMF in order to obtain a 10 mM verapamil solution and 10 mM dextromethorphan solution. These solutions were then diluted in the incubation medium in order to obtain a 50 uM verapamil working solution and a 50 uM dextromethorphan working solution.
800 μL-aliquots of NADPH regenerating system were pre-warmed at 37° C. for 5 minutes. […]
Metabolic stability was calculated from the peak area ratio of the remaining test compound with internal standard versus time. The intrinsic clearance (CLint) was determined from the first order elimination constant k (min^−1) (obtained from GraphPad by plotting the natural logarithm of the peak area ratio of the remaining test item with internal standard versus time), using the actual volume of the incubation V (mL), the amount of hepatocytes in the incubation M (million cells) and the hepatocellularity number per g liver Hn (120 for human).

[2] = target: T1, CYP2C8 (Homo sapiens, UniProt P10632); assay: CYP450 inhibition, Vivid Baculosomes (2C8/DBOMF); assay type: in vitro ADME; settings: recombinant human CYP450 Baculosomes, substrate DBOMF; top concentration 5.00E-05
T1 construct: purchased
T1 sequence (P10632 1-490): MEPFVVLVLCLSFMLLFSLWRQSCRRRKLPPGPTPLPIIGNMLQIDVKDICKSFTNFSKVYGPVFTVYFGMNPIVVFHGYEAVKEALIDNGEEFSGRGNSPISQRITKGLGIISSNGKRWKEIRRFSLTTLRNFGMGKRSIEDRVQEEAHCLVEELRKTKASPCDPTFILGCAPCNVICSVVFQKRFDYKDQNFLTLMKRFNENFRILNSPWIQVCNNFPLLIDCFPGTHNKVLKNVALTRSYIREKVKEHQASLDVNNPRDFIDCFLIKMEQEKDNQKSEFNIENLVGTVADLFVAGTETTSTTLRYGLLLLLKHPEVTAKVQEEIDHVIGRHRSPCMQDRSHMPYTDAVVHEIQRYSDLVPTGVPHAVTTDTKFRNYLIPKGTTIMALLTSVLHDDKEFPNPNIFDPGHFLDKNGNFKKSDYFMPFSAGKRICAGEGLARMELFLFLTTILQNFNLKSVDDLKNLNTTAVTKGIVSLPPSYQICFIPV
From the text: The method uses recombinant human CYP450 to metabolize pro-fluorescent probe substrates to fluorescent products. IC50 values for the effect of test compounds on the metabolism of these probe substrates provides a measure of the potency of inhibition of individual CYP450 isoforms.
The described assays measure in vitro inhibitory effects (pIC50) of compounds at the human P450 isoforms (1A2, 2C8, 2C9, 2C19, 2D6, 3A4) expressed in recombinant microsomes. Pro-fluorescent probe substrates are metabolized to fluorescent products by the enzymes.
Fluorescence is measured in kinetic mode (1 read/min for 10 min) and the fluorescence rate is calculated. Data are normalized to controls: DMSO represents 0% effect (i.e. no inhibition), while 10 μM Miconazole is set to 100% effect (i.e. complete inhibition).
Inhibition of the fluorescent signal determined by P450 […] indicates antagonist activity of the compound and allows for the calculation of the compound plC50.
CRCs of compounds are run on two different test occasions (n=2) by preparing serial dilutions from the same compound stock solution. Details of the solutions are outlined in Table 6:
Test compound serial dilutions 1 to 3 were performed from a 10 mM stock solution in DMSO by Biomek FX to generate 10 point CRC. 100% DMSO was used for assay low controls. 10 mM (2 mM for 3A4/DBOMF, 2C8/DBOMF assay only) miconazole solution in DMSO was used as assay high controls. The final concentrations of the 10 point CRCs of test compounds in the assay plate were 5.00E-05; 1.67E-05; 5.56E-06; 1.85E-06; 6.17E-07; 2.06E-07; 6.86E-08; 2.29E-08; 7.62E-09 and 2.54E-09, respectively.
The CYP3A4 and CYP2C8 were assayed using the Vivid CYP3A4 Baculosomes, CYP2C8 Baculosomes and Vivid DBOMF Substrate. […]
10 μl/well from compound plate was added and incubated for 10 min at 37° C. on a plate shaker. […] The plate was transferred into the fluorescent plate reader (EnVision, Wallac) immediately within 2 min and monitor fluorescence every minute for 10 (Excitation 485, Emission 535 and Mirror 505 FITC). […]
The inhibition effect was expressed as percentage. […]

| SMILES | CLi rat [1] [mL/min/g liver] | IC50 [2] [µM] |
| --- | --- | --- |
| COc1nc(Oc2ccc(C)c3c2C2(CC2)CO3)ccc1N1C(=O)NC(C)(C)C1=O [Reference Example 2, reference compound] | 8.7 | 2.3 |
| Cc1ccc(Oc2ccc(N3C(=O)NC(C)(C)C3=O)c(N)n2)c2c1OCC21CC1 [Example 1, 3-[2-amino-6-(7-methylspiro[2H-benzofuran-3,1′-cyclopropane]-4-yl)oxy-3-pyridyl]-5,5-dimethyl-imidazolidine-2,4-dione] | 5.4 | 8.9 |
| CC1(C)NC(=O)N(c2ccc(Oc3cccc(OC(F)(F)F)c3)nc2N)C1=O [Example 9, 3-[2-amino-6-[3-(trifluoromethoxy)phenoxy]-3-pyridyl]-5,5-dimethyl-imidazolidine-2,4-dione] | <0.5 | > 50 |
